Data from patent US20060276464A1, “Diarylsulfone sulfonamides and use thereof” (Wyeth, priority 2005, published 2006).
Where two headings read alike, the source gives them in different places.

Molecular target: T1, SFRP-1 (Homo sapiens, UniProt Q8N474)
T1 sequence (Q8N474 32-314): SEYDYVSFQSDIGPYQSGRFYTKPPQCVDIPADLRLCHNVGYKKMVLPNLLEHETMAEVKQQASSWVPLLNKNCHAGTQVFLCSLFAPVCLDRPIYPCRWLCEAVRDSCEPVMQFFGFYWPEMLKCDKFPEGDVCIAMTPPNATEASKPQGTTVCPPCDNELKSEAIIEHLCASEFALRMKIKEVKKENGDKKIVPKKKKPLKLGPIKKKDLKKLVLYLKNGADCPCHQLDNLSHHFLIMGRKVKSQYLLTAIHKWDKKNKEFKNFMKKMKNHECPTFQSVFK
Assay: Cell-based assay for in vitro measurement of SFRP-1/SARP2 antagonist activity (U2OS cells co-transfected with 16x TCF-tk-Luciferase reporter, Wnt and hSFRP-1);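 further: U2OS cells co-transfected with a TCF-tk luciferase reporter, a Wnt vector, hSFRP-1 or empty vector and CMV-βgal, luciferase luminescence read in cell lysates alongside βgal activity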
Conditions: for fold induction at 30 µM / fold induction at 15 µM / fold induction at 10 µM / fold induction at 20 µM: U2OS; for fold induction at 10 µM: read-out: Fold Induction with SFRP-1, U2OS cells, single dose 10 μM, luciferase reporter, fold induction over SFRP-1 control; for Fold Induction with SFRP-1 / Fold Induction without SFRP-1: Conc 15 μM

[1] = read-out: Fold Induction with SFRP-1, Conc 30 μM, with SFRP-1, fold induction over SFRP-1 control, single dose
[2] = read-out: Fold Induction without SFRP-1, Conc 30 μM, without SFRP-1, single dose
[3] = read-out: Fold Induction with SFRP-1, Conc 15 μM, with SFRP-1, fold induction over SFRP-1 control, single dose
[4] = read-out: Fold Induction without SFRP-1, Conc 15 μM, without SFRP-1, single dose
[5] = read-out: Fold Induction with SFRP-1, Conc 15 μM, single dose, luciferase reporter, fold induction over SFRP-1 control, cells with SFRP-1
[6] = read-out: Fold Induction without SFRP-1, Conc 15 μM, single dose, luciferase reporter, cells without SFRP-1 (specificity control)
[7] = with SFRP-1, fold induction over SFRP-1 control, single dose
[8] = read-out: Fold Induction with SFRP-1, Conc 20 μM, with SFRP-1, fold induction over SFRP-1 control, single dose
[9] = read-out: Fold Induction without SFRP-1, Conc 20 μM, without SFRP-1, single dose

| fold induction at 15 µM [3] | fold induction at 15 µM [4] | Structure (SMILES) | also measured |
| --- | --- | --- | --- |
| – | – | CCOc1ccc(CCNS(=O)(=O)c2cc(S(=O)(=O)c3ccccc3)ccc2C)cc1OC [Example 55, N-[2-(4-ethoxy-3-methoxyphenyl)ethyl]-2-methyl-5-(phenylsulfonyl)benzenesulfonamide] | fold induction at 30 µM [1]: 3.1; fold induction at 30 µM [2]: 0.9 |
| 1.2 | 1 | Cc1ccc(S(=O)(=O)c2ccc(C(C)(O)Cc3ccccc3)cc2)cc1S(=O)(=O)NCCc1ccccn1 (centres unmarked) [Example 408, 5-{[4-(1-hydroxy-1-methyl-2-phenylethyl)phenyl]sulfonyl}-2-methyl-N-(2-pyridin-2-ylethyl)benzenesulfonamide] | – |
| – | – | N#CCCNS(=O)(=O)c1cccc(S(=O)(=O)c2ccccc2)c1 [Example 183, N-(2-cyanoethyl)-3-(phenylsulfonyl)benzenesulfonamide] | fold induction at 30 µM [1]: 1.3; fold induction at 30 µM [2]: 1 |
| – | – | Cc1ccc(S(=O)(=O)c2ccc(F)cc2)cc1S(=O)(=O)NC1CCN(C(=O)OC(C)(C)C)CC1 [Example 789, tert-butyl 4-[({5-[(4-fluorophenyl)sulfonyl]-2-methylphenyl}sulfonyl)amino]piperidine-1-carboxylate] | fold induction at 10 µM: 1.5 |
| 1.6 | 1.1 | Cc1ccc(S(=O)(=O)c2ccccc2)cc1S(=O)(=O)NC1CCN(C(=O)Cc2ccccc2)CC1 [Example 470, 2-methyl-N-[1-(phenylacetyl)piperidin-4-yl]-5-(phenylsulfonyl)benzenesulfonamide] | – |
| – | – | CN1CCCC1CCNS(=O)(=O)c1cccc(S(=O)(=O)c2ccccc2)c1 (centres unmarked) [Example 186, N-[2-(1-methylpyrrolidin-2-yl)ethyl]-3-(phenylsulfonyl)benzenesulfonamide] | fold induction at 30 µM [1]: 1.3; fold induction at 30 µM [2]: 1.3 |
| – | – | O=S(=O)(NC(CO)CO)c1cc(S(=O)(=O)c2ccccc2)ccc1Cl [Example 675, 2-chloro-N-[2-hydroxy-1-(hydroxymethyl)ethyl]-5-(phenylsulfonyl)benzenesulfonamide] | EC50: 41.5 µM; fold induction at 10 µM: 1.7 |
| 2.5 | 1 | Cc1ccc(S(=O)(=O)c2ccc(Cl)c(Cl)c2)cc1S(=O)(=O)NCCCn1ccnc1 [Example 340, 5-[(3,4-dichlorophenyl)sulfonyl]-N-[3-(1H-imidazol-1-yl)propyl]-2-methylbenzenesulfonamide] | – |
| – | – | Cc1ccc(S(=O)(=O)c2ccccc2)cc1S(=O)(=O)NCCC(=O)N1CCCC1 [Example 665, 2-methyl-N-(3-oxo-3-pyrrolidin-1-ylpropyl)-5-(phenylsulfonyl)benzenesulfonamide] | fold induction at 10 µM: 1.3 |
| – | – | Cc1ccc(C(=O)NCCNS(=O)(=O)c2cc(S(=O)(=O)c3ccccc3)ccc2C(F)(F)F)cc1 [Example 775, 4-Methyl-N-[2-({[5-(phenylsulfonyl)-2-(trifluoromethyl)phenyl]sulfonyl}amino)ethyl]benzamide] | fold induction at 10 µM: 1.3 |
| – | – | CC(C)c1ccc(S(=O)(=O)c2ccc(F)cc2)cc1S(=O)(=O)NC1CCCCC1 [Example 524, N-cyclohexyl-5-[(4-fluorophenyl)sulfonyl]-2-isopropylbenzenesulfonamide] | fold induction at 15 µM [5]: 1.4; fold induction at 15 µM [6]: 1 |
| 1.1 | 1.1 | Cc1ccc(S(=O)(=O)c2ccc(Cl)cc2)cc1S(=O)(=O)NC[C@@H](C)c1ccccc1 [Example 265, 5-[(4-chlorophenyl)sulfonyl]-2-methyl-N-[(2S)-2-phenylpropyl]benzenesulfonamide] | Fold Induction with SFRP-1 [7]: 1.2 fold; Fold Induction without SFRP-1 (without SFRP-1, single dose): 1 fold |
| 2.5 | 1.3 | Cc1ccc(S(=O)(=O)c2ccccc2)cc1S(=O)(=O)NCCC(N)=O [Example 203, N^3-{[2-methyl-5-(phenylsulfonyl)phenyl]sulfonyl}-beta-alaninamide] | – |
| 0.8 | 1 | C=CCN(CCc1ccccc1F)S(=O)(=O)c1cc(S(=O)(=O)c2ccc(C)cc2)ccc1C [Example 276, N-allyl-N-[2-(2-fluorophenyl)ethyl]-2-methyl-5-[(4-methylphenyl)sulfonyl]benzene sulfonamide] | – |
| – | – | Cc1ccc(S(=O)(=O)c2ccc(F)cc2)cc1S(=O)(=O)N(C(=O)C1CC1)C1CCN(C(=O)C2CC2)CC1 [Example 602, N-[1-(cyclopropylcarbonyl)piperidin-4-yl]-N-({5-[(4-fluorophenyl)sulfonyl]-2-methylphenyl}sulfonyl)cyclopropanecarboxamide] | fold induction at 15 µM [5]: 1.3; fold induction at 15 µM [6]: 1.1 |
| – | – | O=C(NCCNS(=O)(=O)c1cc(S(=O)(=O)c2ccccc2)ccc1C(F)(F)F)c1ccc(OC(F)(F)F)cc1 [Example 782, N-[2-({[5-(Phenylsulfonyl)-2-(trifluoromethyl)phenyl]sulfonyl}amino)ethyl]-4-(trifluoromethoxy)benzamide] | fold induction at 10 µM: 1.2 |
| – | – | CC(C)(C)c1ccc(S(=O)(=O)N2CCC(NS(=O)(=O)c3cc(S(=O)(=O)c4ccccc4)ccc3C(F)(F)F)CC2)cc1 [Example 748, N-{1-[(4-tert-butylphenyl)sulfonyl]piperidin-4-yl}-5-(phenylsulfonyl)-2-(trifluoromethyl)benzenesulfonamide] | fold induction at 10 µM: 2.8 |
| 2.1 | 1.2 | Cc1ccc(S(=O)(=O)c2ccccc2)cc1S(=O)(=O)NC1CC1 [Example 424, N-cyclopropyl-2-methyl-5-(phenylsulfonyl)benzenesulfonamide] | – |
| 1.9 | 0.9 | Cc1ccc(S(=O)(=O)c2cccc(O)c2)cc1S(=O)(=O)NCCc1ccccn1 [Example 416, 5-[(3-hydroxyphenyl)sulfonyl]-2-methyl-N-(2-pyridin-2-ylethyl)benzenesulfonamide] | – |
| 2.5 | 0.8 | COCCCNS(=O)(=O)c1cc(S(=O)(=O)c2ccc(F)cc2)ccc1C [Example 173, 5-[(4-fluorophenyl)sulfonyl]-N-(3-methoxypropyl)-2-methylbenzenesulfonamide] | Fold Induction with SFRP-1 [7]: 2 fold; Fold Induction without SFRP-1 (without SFRP-1, single dose): 1 fold |
| 1.2 | 1 | Cc1ccc(S(=O)(=O)c2ccccc2)cc1S(=O)(=O)NC(C)(C)C [Example 395, N-(tert-butyl)-2-methyl-5-(phenylsulfonyl)benzenesulfonamide] | – |
| – | – | C[C@@H](CNS(=O)(=O)c1cccc(S(=O)(=O)c2ccccc2)c1)c1ccccc1 [Example 260, N-[(2R)-2-phenylpropyl]-3-(phenylsulfonyl)benzenesulfonamide] | fold induction at 20 µM [8]: 1.2; fold induction at 20 µM [9]: 1 |
| 1.1 | 1 | O=S(=O)(NCCc1ccccn1)c1cc(S(=O)(=O)c2ccc(F)cc2)ccc1C1CCCCC1 [Example 460, 2-cyclohexyl-5-[(4-fluorophenyl)sulfonyl]-N-(2-pyridin-2-ylethyl)benzenesulfonamide] | – |
| 1.2 | 1.1 | CCC(CC)NS(=O)(=O)c1cc(S(=O)(=O)c2ccccc2)ccc1C [Example 397, N-(1-ethylpropyl)-2-methyl-5-(phenylsulfonyl)benzenesulfonamide] | – |
| 3.3 | 0.7 | CCc1ccc(S(=O)(=O)c2ccccc2)cc1S(=O)(=O)NCCc1cccc(OC)c1 [Example 143, 2-ethyl-N-[2-(3-methoxyphenyl)ethyl]-5-(phenylsulfonyl)benzenesulfonamide] | – |
| 1.3 | 1.2 | CCOc1cc(CCNS(=O)(=O)c2cccc(S(=O)(=O)c3ccccc3)c2)ccc1OC [Example 83, N-[2-(3-ethoxy-4-methoxyphenyl)ethyl]-3-(phenylsulfonyl)benzenesulfonamide] | – |
| – | – | Cc1ccc(S(=O)(=O)c2ccccc2)cc1S(=O)(=O)NC1Cc2ccccc2C1 [Example 246, N-2,3-dihydro-1H-inden-2-yl-2-methyl-5-(phenylsulfonyl)benzenesulfonamide] | fold induction at 20 µM [8]: 2.2; fold induction at 20 µM [9]: 0.8 |
| – | – | CC(C)(C)OC(=O)N1CCCC1CCNS(=O)(=O)c1cc(S(=O)(=O)c2ccccc2)ccc1C(F)(F)F (centres unmarked) [Example 908, tert-butyl 2-[2-({[5-(phenylsulfonyl)-2-(trifluoromethyl)phenyl]sulfonyl}amino)ethyl]pyrrolidine-1-carboxylate] | fold induction at 10 µM: 1.1 |
| – | – | COc1ccc(CCNS(=O)(=O)c2cc(S(=O)(=O)c3ccccc3)ccc2C)cc1OC [Example 34, N-[2-(3,4-dimethoxyphenyl)ethyl]-2-methyl-5-(phenylsulfonyl)benzenesulfonamide] | fold induction at 30 µM [1]: 1.7; fold induction at 30 µM [2]: 0.6 |
